Tests used:
[1] = target: RNA-directed RNA polymerase (Hepacivirus hominis, UniProt O39930); experiment: Inhibitory activity against NS5B polymerase of hepatitis C virus
[2] = test system: Hepatitis C virus; experiment: Inhibitory activity against HCV RNA replication; assay type: functional, organism-based, Hepacivirus hominis
[3] = target: Genome polyprotein (Human poliovirus 1 Mahoney, UniProt P03300); experiment: Inhibitory activity against polio virus RNA polymerase
[4] = target: RNA-directed RNA polymerase (Hepacivirus hominis) (UniProt O39930); experiment: Inhibitory activity against NS5B polymerase of hepatitis C virus at 7 uM concentration; (Range = 13-30)
Sequence of RNA-directed RNA polymerase (Hepacivirus hominis) (O39930 1-591): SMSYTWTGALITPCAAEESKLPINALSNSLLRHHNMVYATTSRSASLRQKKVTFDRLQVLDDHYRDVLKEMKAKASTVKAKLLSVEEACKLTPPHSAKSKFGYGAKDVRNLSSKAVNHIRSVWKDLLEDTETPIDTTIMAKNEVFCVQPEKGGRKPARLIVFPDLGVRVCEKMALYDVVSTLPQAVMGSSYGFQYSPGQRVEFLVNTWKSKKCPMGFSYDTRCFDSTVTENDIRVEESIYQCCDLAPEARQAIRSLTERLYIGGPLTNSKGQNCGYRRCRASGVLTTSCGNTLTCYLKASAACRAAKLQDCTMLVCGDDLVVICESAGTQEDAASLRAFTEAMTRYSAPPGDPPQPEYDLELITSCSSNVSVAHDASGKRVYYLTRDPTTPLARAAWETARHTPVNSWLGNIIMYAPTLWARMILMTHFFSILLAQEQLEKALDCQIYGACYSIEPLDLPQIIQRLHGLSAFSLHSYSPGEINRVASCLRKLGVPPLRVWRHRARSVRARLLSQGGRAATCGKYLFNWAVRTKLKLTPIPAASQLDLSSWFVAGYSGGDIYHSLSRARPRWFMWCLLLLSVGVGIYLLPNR

Sequence of RNA-directed RNA polymerase (O39930 whole entry): as the sequence (O39930 1-591) above
Sequence of Genome polyprotein (P03300 1749-2209 limits assumed): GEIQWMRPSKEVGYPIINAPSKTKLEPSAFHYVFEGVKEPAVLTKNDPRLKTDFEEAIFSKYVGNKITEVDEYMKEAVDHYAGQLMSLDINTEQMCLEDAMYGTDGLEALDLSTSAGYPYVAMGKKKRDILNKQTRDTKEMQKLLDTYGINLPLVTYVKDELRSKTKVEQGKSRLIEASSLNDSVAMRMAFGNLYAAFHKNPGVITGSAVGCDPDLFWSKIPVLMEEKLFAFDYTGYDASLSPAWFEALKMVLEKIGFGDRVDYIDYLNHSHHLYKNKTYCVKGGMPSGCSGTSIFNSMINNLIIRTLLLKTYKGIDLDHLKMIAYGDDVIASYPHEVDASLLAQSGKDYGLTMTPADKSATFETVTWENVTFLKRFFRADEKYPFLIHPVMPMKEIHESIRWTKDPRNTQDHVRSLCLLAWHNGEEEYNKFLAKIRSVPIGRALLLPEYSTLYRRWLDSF

SMILES: Cc1[nH]cnc1-c1nc2cc(C(=O)O)ccc2n1C1CCCCC1
- IC50 [1]: > 30 µM

SMILES: O=C(O)c1ccc2c(c1)nc(-c1ccccn1)n2-c1ccccc1
- IC50 [1]: 360 µM

SMILES: O=C(O)c1ccc2c(c1)nc(C1CCCCC1)n2C1CCCCC1
- IC50 [1]: 20 µM

SMILES: O=C(O)c1ccc2c(c1)nc(C(=O)c1ccccc1)n2C1CCCCC1
- IC50 [1]: 44 µM

SMILES: O=C(O)c1ccc2c(c1)nc(-c1ccc(-c3ccc(Cl)cc3)o1)n2C1CCCCC1
- IC50 [1]: > 30 µM

SMILES: CCc1ccc(-c2nc3cc(C(=O)O)ccc3n2C2CCCCC2)o1
- IC50 [1]: > 30 µM

SMILES: O=C(O)c1ccc2c(c1)nc(-c1cccs1)n2C1CCCCC1
- EC50 [2]: > 100 µM
- IC50 [3]: > 250 µM
- IC50 [1]: 3.4 µM

SMILES: O=C(O)c1ccc2c(c1)nc(-c1ccoc1)n2C1CCCCC1
- EC50 [2]: > 100 µM
- IC50 [3]: > 250 µM
- IC50 [1]: 1.6 µM

SMILES: CCOC(=O)c1nc2cc(C(=O)O)ccc2n1C1CCCCC1
- IC50 [1]: 62 µM

SMILES: CC1CCCCC1n1c(-c2ccccn2)nc2cc(C(=O)O)ccc21 (centres undefined)
- IC50 [3]: > 500 µM
- IC50 [1]: 13 µM

SMILES: Cc1cccc(-c2nc3cc(C(=O)O)ccc3n2C2CCCCC2)n1
- IC50 [1]: > 30 µM

SMILES: O=C(O)c1ccc2c(c1)nc(-c1ccc(Br)o1)n2C1CCCCC1
- IC50 [1]: > 30 µM

SMILES: O=C(O)c1ccc2c(c1)nc(-c1ccccn1)n2C1CCCC1
- IC50 [3]: > 500 µM
- IC50 [1]: 12 µM

SMILES: O=C(O)c1ccc2c(c1)nc(-c1ccccc1)n2C1CCCCC1
- IC50 [3]: 250 µM
- IC50 [1]: 8.6 µM

SMILES: O=C(O)c1ccc2c(c1)nc(-c1ccccn1)n2C1CCCCCC1
- IC50 [1]: 49 µM

SMILES: CN(C)CCCNC(=O)COc1ccc(-c2nc3cc(C(=O)O)ccc3n2C2CCCCC2)cc1
- IC50 [1]: 13 µM

SMILES: O=C(O)c1ccc2c(c1)nc(-c1ccncc1)n2C1CCCCC1
- IC50 [3]: > 500 µM
- IC50 [1]: 17 µM

SMILES: O=C(O)c1ccc2c(c1)nc(-c1ccc(C(=O)O)s1)n2C1CCCCC1
- IC50 [1]: > 30 µM

SMILES: O=C(O)c1ccc2c(c1)nc(-c1ccsc1)n2C1CCCCC1
- EC50 [2]: > 100 µM
- IC50 [3]: > 250 µM
- IC50 [1]: 6.33 µM

SMILES: CC(C)n1c(-c2ccccn2)nc2cc(C(=O)O)ccc21
- IC50 [1]: 408 µM

SMILES: COc1ccc(CNC(=O)c2ccc3c(c2)nc(-c2ccccn2)n3C2CCCCC2)cc1OC
- IC50 [3]: > 500 µM
- IC50 [1]: 7.1 µM

SMILES: O=C(O)c1ccc2[nH]c(-c3ccccn3)nc2c1
- IC50 [1]: > 500 µM

SMILES: O=C(O)c1ccc2c(c1)nc(-c1c[nH]nc1-c1ccccc1)n2C1CCCCC1
- IC50 [1]: > 30 µM

SMILES: O=C(O)c1ccc2c(c1)nc(-c1ccco1)n2C1CCCCC1
- IC50 [3]: > 500 µM
- IC50 [1]: 3.7 µM

SMILES: CC1CCC(n2c(-c3ccccn3)nc3cc(C(=O)O)ccc32)CC1 (centres undefined)
- IC50 [1]: 50 µM

SMILES: NC(=O)c1ccc2c(c1)nc(-c1ccccn1)n2C1CCCCC1
- IC50 [1]: 27 µM

SMILES: CCc1ccc(-c2nc3cc(C(=O)O)ccc3n2C2CCCCC2)s1
- IC50 [1]: > 30 µM

SMILES: O=C(O)c1ccc2c(c1)nc(-c1ccccn1)n2C1CCC1
- IC50 [1]: 76 µM

SMILES: O=C(O)c1ccc2c(c1)nc(-c1cc3ccccc3o1)n2C1CCCCC1
- IC50 [1]: 58 µM

SMILES: CNC(=O)c1ccc2c(c1)nc(-c1ccccn1)n2C1CCCCC1
- IC50 [1]: 28 µM

SMILES: O=C(O)c1ccc2c(c1)ncn2C1CCCCC1
- IC50 [1]: 186 µM

SMILES: CCC(CC)n1c(-c2ccccn2)nc2cc(C(=O)O)ccc21
- IC50 [1]: 139 µM

SMILES: Cc1c(-c2nc3cc(C(=O)O)ccc3n2C2CCCCC2)[nH]c2ccccc12
- IC50 [1]: > 30 µM

SMILES: O=C(O)c1ccc2c(c1)nc(-c1ccc[nH]1)n2C1CCCCC1
- IC50 [3]: > 500 µM
- IC50 [1]: 5.9 µM

SMILES: Cn1cccc1-c1nc2cc(C(=O)O)ccc2n1C1CCCCC1
- IC50 [3]: > 500 µM
- IC50 [1]: 1.8 µM

SMILES: O=C(O)c1ccc2c(c1)nc(-c1ccc3ccccc3n1)n2C1CCCCC1
- IC50 [1]: > 30 µM

SMILES: Cc1ccc(-c2nc3cc(C(=O)O)ccc3n2C2CCCCC2)s1
- IC50 [1]: > 30 µM

SMILES: CC(C)=Cc1nc2cc(C(=O)O)ccc2n1C1CCCCC1
- IC50 [3]: > 500 µM
- IC50 [1]: 19 µM

SMILES: Cc1cc(C)c(-c2nc3cc(C(=O)O)ccc3n2C2CCCCC2)c(C)c1
- IC50 [1]: 120 µM

SMILES: O=C(O)c1ccc2c(c1)nc(-c1ccccn1)n2C1CCCCC1
- EC50 [2]: > 100 µM
- IC50 [3]: > 500 µM
- IC50 [1]: 4.3 µM

SMILES: O=C(O)c1ccc2c(c1)nc(-c1nccs1)n2C1CCCCC1
- IC50 [3]: > 500 µM
- IC50 [1]: 4.6 µM

SMILES: O=C(O)c1ccc2c(c1)nc(-c1ccc(CO)o1)n2C1CCCCC1
- IC50 [1]: > 30 µM

SMILES: COc1ccc(NC(=O)c2ccc3c(c2)nc(-c2ccccn2)n3C2CCCCC2)cc1OC
- inhibition [4]: 30%

SMILES: COc1ccc(CCNC(=O)c2ccc3c(c2)nc(-c2ccccn2)n3C2CCCCC2)cc1OC
- IC50 [3]: > 500 µM
- IC50 [1]: 12 µM

SMILES: Cc1cc(-c2nc3cc(C(=O)O)ccc3n2C2CCCCC2)oc1C
- IC50 [1]: > 30 µM

SMILES: O=C(O)c1ccc2c(c1)nc(-c1ncc[nH]1)n2C1CCCCC1
- IC50 [3]: > 250 µM
- IC50 [1]: 10 µM

SMILES: O=C(O)c1ccc2c(c1)nc(-c1cccnc1)n2C1CCCCC1
- IC50 [3]: > 250 µM
- IC50 [1]: 28 µM

SMILES: O=C(O)c1ccc2c(c1)nc(-c1ccc(C(=O)O)o1)n2C1CCCCC1
- IC50 [1]: > 30 µM
